Laboratory results published in patent US10975119B2, “Selective cysteine protease inhibitors and uses thereof” (Genesis Technologies Limited, priority 2011, dated 2021).
Where two headings read alike, the source gives them in different places.

Assays:
Assay type in all cases: biochemical
Caspase-9 = target: T1, Caspase-9 (Homo sapiens, UniProt P55211); test: Caspase-9 inhibitor screening assay (BioVision kit, LEHD-AFC); conditions: for inhibition at 10 µM: read-out: % Inhibition at 10 uM Casp9; for inhibition at 100 µM: read-out: % Inhibition at 100 uM Casp9
T1 construct: purchased BioVision K159-100
T1 sequence (P55211 1-315 limits assumed): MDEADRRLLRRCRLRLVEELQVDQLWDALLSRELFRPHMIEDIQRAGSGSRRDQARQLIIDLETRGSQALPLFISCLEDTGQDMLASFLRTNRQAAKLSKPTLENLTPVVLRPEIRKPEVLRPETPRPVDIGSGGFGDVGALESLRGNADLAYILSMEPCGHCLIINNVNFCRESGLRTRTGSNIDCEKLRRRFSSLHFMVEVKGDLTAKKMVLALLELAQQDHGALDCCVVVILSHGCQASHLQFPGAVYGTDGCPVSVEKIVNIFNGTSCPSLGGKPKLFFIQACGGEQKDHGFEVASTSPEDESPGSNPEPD
T1 sequence (P55211 331-416 limits assumed): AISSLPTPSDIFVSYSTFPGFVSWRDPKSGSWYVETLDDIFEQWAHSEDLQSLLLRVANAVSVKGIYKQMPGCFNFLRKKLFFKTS
In short: (§1)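 Each caspase cleaved its own AFC-labelled peptide substrate, and released AFC was read by fluorescence. % inhibition came from RFU against an uninhibited control.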

Caspase-2 = target: T2, Caspase-2 (Homo sapiens, UniProt P42575); test: Caspase-2 inhibitor screening assay (BioVision kit, VDVAD-AFC); conditions: for inhibition at 10 µM: read-out: % Inhibition at 10 uM Casp2; for inhibition at 100 µM: read-out: % Inhibition at 100 uM Casp2; for IC50: read-out: IC50 Casp2
T2 construct: mixing the compounds with the respective active caspases; purchased BioVision K152-100
T2 sequence (P42575 170-325 limits assumed): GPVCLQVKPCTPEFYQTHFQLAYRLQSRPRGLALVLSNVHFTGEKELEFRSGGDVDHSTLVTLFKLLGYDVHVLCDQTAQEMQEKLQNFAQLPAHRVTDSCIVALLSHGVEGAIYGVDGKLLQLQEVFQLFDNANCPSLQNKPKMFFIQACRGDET
T2 sequence (P42575 334-452 limits assumed): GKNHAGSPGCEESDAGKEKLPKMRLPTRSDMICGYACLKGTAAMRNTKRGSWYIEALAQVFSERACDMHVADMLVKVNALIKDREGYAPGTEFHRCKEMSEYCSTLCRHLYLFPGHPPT
In short: as §1

Caspase-10 = target: T3, Caspase-10 (Homo sapiens, UniProt Q92851); test: Caspase-10 inhibitor screening assay (BioVision kit, AEVD-AFC); conditions: for inhibition at 10 µM: read-out: % Inhibition at 10 uM Casp10; for inhibition at 100 µM: read-out: % Inhibition at 100 uM Casp10
T3 construct: mixing the compounds with the respective active caspases; purchased BioVision K160-100
T3 sequence (Q92851 220-415 limits assumed): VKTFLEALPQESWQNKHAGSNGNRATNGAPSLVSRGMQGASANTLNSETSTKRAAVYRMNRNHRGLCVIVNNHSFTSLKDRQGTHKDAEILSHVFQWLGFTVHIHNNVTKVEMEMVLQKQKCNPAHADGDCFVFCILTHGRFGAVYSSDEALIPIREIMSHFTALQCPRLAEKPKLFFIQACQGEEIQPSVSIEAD
T3 sequence (Q92851 416-521 limits assumed): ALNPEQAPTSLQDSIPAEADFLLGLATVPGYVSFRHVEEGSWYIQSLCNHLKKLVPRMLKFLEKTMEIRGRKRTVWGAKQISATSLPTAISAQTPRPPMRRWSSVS
In short: as §1

Caspase-4 = target: T4, Caspase-4 (Homo sapiens, UniProt P49662); test: Caspase-4 inhibitor screening assay (BioVision kit, LEVD-AFC); conditions: for inhibition at 10 µM: read-out: % Inhibition at 10 uM Casp4; for inhibition at 100 µM: read-out: % Inhibition at 100 uM Casp4; for IC50: read-out: IC50 Casp4
T4 construct: mixing the compounds with the respective active caspases; purchased BioVision K154-100
T4 sequence (P49662 81-270 limits assumed): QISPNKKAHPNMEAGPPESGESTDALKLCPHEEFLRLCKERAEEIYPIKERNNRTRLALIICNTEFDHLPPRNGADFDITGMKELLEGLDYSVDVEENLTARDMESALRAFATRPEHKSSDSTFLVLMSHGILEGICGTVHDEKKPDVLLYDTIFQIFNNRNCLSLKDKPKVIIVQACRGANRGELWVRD
T4 sequence (P49662 290-377 limits assumed): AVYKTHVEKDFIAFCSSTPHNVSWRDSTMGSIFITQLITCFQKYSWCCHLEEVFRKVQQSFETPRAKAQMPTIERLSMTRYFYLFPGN
In short: as §1

Caspase-8 = target: T5, Caspase-8 (Homo sapiens, UniProt Q14790); test: Caspase-8 inhibitor screening assay (BioVision kit, IETD-AFC); conditions: for inhibition at 10 µM: read-out: % Inhibition at 10 uM Casp8; for inhibition at 100 µM: read-out: % Inhibition at 100 uM Casp8; for IC50: read-out: IC50 Casp8
T5 construct: mixing the compounds with the respective active caspases; purchased BioVision K158-100
In short: as §1

Caspase-6 = target: T6, Caspase-6 (Homo sapiens, UniProt P55212); test: Caspase-6 inhibitor screening assay (BioVision kit, VEID-AFC); conditions: for inhibition at 10 µM: read-out: % Inhibition at 10 uM Casp6; for inhibition at 100 µM: read-out: % Inhibition at 100 uM Casp6; for IC50: read-out: IC50 Casp6
T6 construct: mixing the compounds with the respective active caspases; purchased BioVision K156-100
T6 sequence (P55212 24-179 limits assumed): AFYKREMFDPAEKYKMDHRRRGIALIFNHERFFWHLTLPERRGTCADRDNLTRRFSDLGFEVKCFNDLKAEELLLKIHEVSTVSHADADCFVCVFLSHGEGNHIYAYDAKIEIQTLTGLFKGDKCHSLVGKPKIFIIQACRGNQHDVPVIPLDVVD
T6 sequence (P55212 194-293 limits assumed): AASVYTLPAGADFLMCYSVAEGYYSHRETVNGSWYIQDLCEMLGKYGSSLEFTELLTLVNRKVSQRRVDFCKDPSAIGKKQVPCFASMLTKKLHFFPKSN
In short: as §1

T5 sequence (Q14790 217-374 limits assumed): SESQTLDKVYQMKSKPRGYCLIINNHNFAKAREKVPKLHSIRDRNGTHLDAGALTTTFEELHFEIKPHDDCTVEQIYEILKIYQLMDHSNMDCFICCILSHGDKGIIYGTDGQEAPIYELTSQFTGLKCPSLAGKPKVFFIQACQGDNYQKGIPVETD
T5 sequence (Q14790 385-479 limits assumed): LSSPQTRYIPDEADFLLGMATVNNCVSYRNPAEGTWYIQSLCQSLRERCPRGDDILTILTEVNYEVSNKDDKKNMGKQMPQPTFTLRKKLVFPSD

Row | inhibition at 10 µM (Caspase-9) | inhibition at 100 µM (Caspase-9) | IC50 (Caspase-9; read-out: IC50 Casp9) | inhibition at 10 µM (Caspase-2) | inhibition at 100 µM (Caspase-2) | IC50 (Caspase-2) | inhibition at 10 µM (Caspase-10) | inhibition at 100 µM (Caspase-10) | IC50 (Caspase-10; read-out: IC50 Casp10) | inhibition at 10 µM (Caspase-4) | inhibition at 100 µM (Caspase-4) | IC50 (Caspase-4) | inhibition at 10 µM (Caspase-8) | inhibition at 100 µM (Caspase-8) | IC50 (Caspase-8) | inhibition at 10 µM (Caspase-6) | inhibition at 100 µM (Caspase-6) | IC50 (Caspase-6) | IC50 (Caspase-9; read-out: potency (IC50) against caspase-9) | IC50 (Caspase-10; read-out: potency (IC50) against caspase-10) | SMILES
1 | 0% | 9% | > 100 µM | 0% | 0% | > 100 µM | 14% | 0% | > 100 µM | 0% | 0% | > 100 µM | 0% | 0% | > 100 µM | 0% | 8% | > 100 µM |  |  | CS(=O)(=O)/C=C/[C@H](CC(=O)O)NC(=O)[C@H](CCC(=O)O)NC(=O)c1ccc2ccccc2n1 [Compound 18, 2-Quinoline carbonyl-Glu-Asp methyl vinyl sulfone]
2 | 95% | 100% | 0.66 µM | 70% | 96% | 4.36 µM | 99% | 100% | 0.16 µM | 88% | 100% | 3.27 µM | 82% | 99% | 2.23 µM | 0% | 7% | > 100 µM | 0.662 µM | 0.161 µM | CC(C)(C)[C@H](NC(=O)[C@H](CC(=O)O)NC(=O)OCc1ccccc1)C(=O)N1CCCC1C(=O)N[C@H](/C=C/S(C)(=O)=O)CC(=O)O (stereo in doubt) [Compound 26, Z-Asp-t-Leu-Pro-Asp-methyl vinyl sulfone]
3 | 8% | 44% | > 100 µM | 7% | 6% | > 100 µM | 42% | 93% | 12.5 µM | 85% | 100% | 1.56 µM | 8% | 23% | > 100 µM | 0% | 0% | > 100 µM |  |  | CC(C)(C)[C@H](NC(=O)c1ccc2ccccc2n1)C(=O)N1CC[C@@H]1C(=O)N[C@H](/C=C/S(C)(=O)=O)CC(=O)O [Compound 20, 2-Quinoline carbonyl-t-Leu-(Azetidine-2-carbonyl)-Asp methyl vinyl sulfone]
4 |  |  | 0.83 µM |  |  | > 100 µM |  |  | 0.55 µM |  |  | 0.03 µM |  |  | 0.6 µM |  |  | > 100 µM |  |  | CCOC(=O)/C=C/[C@H](CC(=O)O)NC(=O)[C@H]1CCCN1C(=O)[C@@H](NC(=O)c1ccc(N)c(Cl)c1)C(C)(C)C [Compound 116, (4-amino-3-chlorobenzene carbonyl)-t-Leu-Pro-Asp Ethyl vinyl ester]
5 | 0% | 0% | > 100 µM | 0% | 0% | > 100 µM | 21% | 15% | > 100 µM | 1% | 0% | > 100 µM | 0% | 0% | > 100 µM | 0% | 0% | > 100 µM |  |  | CS(=O)(=O)/C=C/[C@H](CC(=O)O)NC(=O)[C@H]1CCC(=O)N1 [Compound 24, (2-Pyrrolidinone-5-carbonyl)-Asp methyl vinyl sulfone]
